Among the test systems are MDA-MB-435; UACC-257 melanoma; SF-539 CNS; DU-145 prostate; MDA-MB-231 breast; HCT-116 colon; OVCAR-3 ovarian; SK-MEL-2 melanoma; HOP-62 NSCLC; T-47D breast.
Common to all, as to assay: NCI-60 cell line screen, 48 h

The values that follow come from PubChem BioAssay (NCI).

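Following 48 hours of exposure in 96-well plates, responses at five concentrations were used to interpolate endpoints linearly. GI50 is the concentration that inhibits growth by half. TGI marks complete inhibition of growth.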 Bounds are passed on as bounds.

In the case of `O=C1c2ccccc2C(=O)c2c1ccc1c3ccccc3n(-c3ccccc3)c21`, the TGI in the assay with MDA-MB-435 was 26 µM; in the assay with UACC-257 melanoma it was 41.7 µM; in the assay with SF-539 CNS, 43.6 µM; with DU-145 prostate it was 33.4 µM; in the assay on MDA-MB-231 breast it was 77.7 µM; in the assay on HCT-116 colon, 47.5 µM. Further, the TGI with OVCAR-3 ovarian is 55 µM; in the assay with SK-MEL-2 melanoma it was 46.8 µM; in the assay on HOP-62 NSCLC, above 100 µM; with T-47D breast, 45.5 µM.
For `N#Cc1cnn(C(=O)c2nn(-c3ccc(Cl)cc3)cc2O)c1N`, the GI50 with MDA-MB-435 was 0.312 µM; in the assay on UACC-257 melanoma, 0.47 µM; with SF-539 CNS, 0.323 µM; with DU-145 prostate, 0.57 µM; with MDA-MB-231 breast, 0.708 µM; with HCT-116 colon, 0.26 µM. The GI50 in the assay with OVCAR-3 ovarian was 0.545 µM; with SK-MEL-2 melanoma it was 0.908 µM; in the assay on HOP-62 NSCLC, 0.392 µM; in the assay on T-47D breast, 0.294 µM. For the same compound, the TGI in the assay on MDA-MB-435 is 18.9 µM; in the assay with UACC-257 melanoma it was 10.6 µM; with SF-539 CNS it was 7.85 µM; in the assay on DU-145 prostate it was 28.4 µM; with MDA-MB-231 breast, 19.2 µM; with HCT-116 colon, 10.9 µM. Further, the TGI in the assay on OVCAR-3 ovarian is 8.44 µM; in the assay on SK-MEL-2 melanoma, 18.9 µM; with HOP-62 NSCLC, 17.4 µM; in the assay on T-47D breast, 19.1 µM.
Regarding `CCCCCn1sc(=O)n(Cc2ccc(CNC(=O)C(C)c3ccc(CC(C)C)cc3)cc2)c1=O` (stereo not given), the GI50 in the assay with MDA-MB-435 is 0.876 µM; in the assay with UACC-257 melanoma, 1.48 µM; with SF-539 CNS it was 1.19 µM; with DU-145 prostate, 1.17 µM; in the assay with MDA-MB-231 breast, 1.18 µM; in the assay with HCT-116 colon it was 0.194 µM. For the same compound, the GI50 with OVCAR-3 ovarian was 0.488 µM; in the assay on SK-MEL-2 melanoma, 1.5 µM; with HOP-62 NSCLC, 1.41 µM; in the assay with T-47D breast, 1.6 µM. The TGI in the assay with MDA-MB-435 was 2.17 µM; with UACC-257 melanoma, 3.02 µM; in the assay on SF-539 CNS it was 2.44 µM; in the assay with DU-145 prostate, 2.4 µM; in the assay with MDA-MB-231 breast, 2.46 µM; in the assay with HCT-116 colon, 0.72 µM. Further, the TGI in the assay with OVCAR-3 ovarian is 1.63 µM; in the assay with SK-MEL-2 melanoma, 2.98 µM; in the assay on HOP-62 NSCLC, 3.35 µM; with T-47D breast it was 4.05 µM.
In the case of `Cc1cnc(C(=O)Nc2nc3ccc(S(=O)(=O)Nc4ccc(C(C)(C)C)cc4)cc3[nH]2)cn1`, the GI50 in the assay on MDA-MB-435 was 0.135 µM; in the assay on UACC-257 melanoma, 2.39 µM; in the assay with SF-539 CNS, 0.333 µM; with DU-145 prostate, 0.525 µM; in the assay with MDA-MB-231 breast, 1.41 µM; in the assay with HCT-116 colon, 0.498 µM. Further, the GI50 was 0.308 µM with OVCAR-3 ovarian, 1.26 µM with SK-MEL-2 melanoma, 0.785 µM with HOP-62 NSCLC and 0.592 µM with T-47D breast. In addition, the TGI in the assay with MDA-MB-435 was found to be 0.434 µM; with UACC-257 melanoma it was 22.7 µM; in the assay with SF-539 CNS, 1.87 µM; in the assay on DU-145 prostate it was 4.51 µM; in the assay with MDA-MB-231 breast, 10.7 µM; in the assay on HCT-116 colon, 6.22 µM. The TGI is 1.32 µM in the assay on OVCAR-3 ovarian, 17.3 µM with SK-MEL-2 melanoma, 18.8 µM in the assay on HOP-62 NSCLC and 20.8 µM in the assay on T-47D breast.
With `CNC(=O)c1sc(-n2cnc3cc(OC)c(OC)cc32)cc1OCc1ccccc1C(F)(F)F`, the GI50 was above 25 µM in the assay with MDA-MB-435; above 25 µM in the assay with UACC-257 melanoma; above 25 µM in the assay on SF-539 CNS; above 25 µM in the assay on DU-145 prostate; 15.9 µM with MDA-MB-231 breast; above 25 µM in the assay on HCT-116 colon. Further, the GI50 in the assay on OVCAR-3 ovarian is above 25 µM; in the assay on SK-MEL-2 melanoma it was above 25 µM; in the assay with HOP-62 NSCLC, above 25 µM; in the assay on T-47D breast, 19.9 µM. Further, the TGI in the assay with MDA-MB-435, in the assay on UACC-257 melanoma, with SF-539 CNS, in the assay with DU-145 prostate, with MDA-MB-231 breast and in the assay on HCT-116 colon was above 25 µM in each case. Moreover, the TGI with OVCAR-3 ovarian, with SK-MEL-2 melanoma, in the assay with HOP-62 NSCLC and in the assay on T-47D breast was above 25 µM throughout.
For the compound `O=C1c2ccc3c4c(ccc(c24)C(=O)N1CCCCO)C(=O)N(CCCCO)C3=O`, the GI50 was 1.46 µM in the assay on MDA-MB-435; 1.3 µM in the assay on UACC-257 melanoma; 1.45 µM in the assay on SF-539 CNS; 2.2 µM in the assay with DU-145 prostate; 2.9 µM with MDA-MB-231 breast; 1.22 µM with HCT-116 colon. Also, the GI50 in the assay on OVCAR-3 ovarian was 0.408 µM; in the assay on SK-MEL-2 melanoma, 1.84 µM; in the assay with HOP-62 NSCLC, 2.53 µM; in the assay with T-47D breast it was 2.54 µM. Also, the TGI came out at 2.86 µM in the assay with MDA-MB-435; 2.71 µM in the assay with UACC-257 melanoma; 3.87 µM in the assay on SF-539 CNS; 6.32 µM in the assay on DU-145 prostate; 97.9 µM in the assay on MDA-MB-231 breast; 6.16 µM in the assay with HCT-116 colon. Also, the TGI is 2.31 µM with OVCAR-3 ovarian, 6.88 µM in the assay on SK-MEL-2 melanoma, 12.7 µM in the assay on HOP-62 NSCLC and 7.26 µM in the assay on T-47D breast.
